# Measured values: PMC10377643, “Exploration of Bis-Cinnamido-Polyamines as Intrinsic Antimicrobial Agents and Antibiotic Enhancers” (Biomolecules, 2023)
# Assays:
# A. baumannii AYE = experiment: Intrinsic MIC, A. baumannii AYE; assay type: cell-based; conditions: Acinetobacter baumannii; A. baumannii AYE; substance alone; read-out: MIC alone, A. b
# Procedure: (§1) Antibiotic enhancer concentrations were determined using previously reported protocols.
# S. aureus ATCC 25923 = experiment: Antimicrobial MIC, S. aureus; assay type: cell-based; conditions: Staphylococcus aureus, ATCC25923, mean (n = 3)
# Procedure: (§2) The susceptibility of bacterial strains S. aureus (ATCC 25923), E. coli (ATCC 25922) and P. aeruginosa (ATCC 27853) to antibiotics and compounds was determined using protocols reported previously. Additional antimicrobial evaluation against MRSA (ATCC 43300), Klebsiella pneumoniae (ATCC 700603), Acinetobacter baumannii (ATCC 19606), Candida albicans (ATCC 90028) and Cryptococcus neoformans (ATCC 208821) was undertaken at the Community for Open Antimicrobial Drug Discovery at The University of Queensland (Australia) according to their standard protocols reported previously.
# K. pneumoniae ATCC 13883 = experiment: Intrinsic MIC, K. pneumoniae ATCC 13883; assay type: cell-based; conditions: Klebsiella pneumoniae, ATCC13883; K. pneumoniae ATCC 13883; substance alone; read-out: MIC alone, K. p
# Procedure: as §1
# P. aeruginosa PAO1 = experiment: Intrinsic MIC, P. aeruginosa PAO1; assay type: cell-based; conditions: Pseudomonas aeruginosa; P. aeruginosa PAO1; substance alone (no antibiotic / no enhancer); read-out: MIC alone, P. a
# Procedure: as §1
# P. aeruginosa = tested on: P. aeruginosa; design: method as in PMID 36982955; conditions: cited from earlier work
# [1] = tested on: antimicrobial activity (microbes not named); design: method as in PMID 36982955; conditions: cited from earlier work
# E. coli ATCC 25922 [2] = experiment: Erythromycin enhancement against E. coli; assay type: cell-based, Escherichia coli; conditions: erythromycin fixed at 10.9 µM (8 µg/mL)
# Procedure: as §1
# [3] = tested on: HEK293 human embryonic kidney cells; experiment: Cytotoxicity assay; assay type: cell-based; conditions: mean (n = 2)
# Procedure: (§3) Cytotoxicity assays were conducted using the protocols previously reported.
# Cytotoxicity assay = assay type: cell-based, human; conditions: human, HEK293 human embryonic kidney cells, mean (n = 2), read-out: Cytotoxicity (IC50), concentration of compound at 50% cytotoxicity
# Procedure: as §3
# MRSA ATCC 43300 = experiment: Antimicrobial MIC, MRSA (CO-ADD); assay type: cell-based, methicillin-resistant S. aureus; conditions: Staphylococcus aureus; MRSA ATCC 43300; mean (n = 2); read-out: MIC MRSA
# Procedure: as §2
# P. aeruginosa ATCC 27853 [4] = experiment: Doxycycline enhancement against P. aeruginosa; assay type: cell-based, Pseudomonas aeruginosa; conditions: doxycycline fixed at 4.5 µM
# Procedure: as §1
# We then evaluated the set of analogues for the ability to enhance the antibiotic activity of doxycycline against P. aeruginosa ATCC 27853 and of erythromycin against E. coli ATCC 25922 (Table 2). In the case of doxycycline, a fixed concentration of the antibiotic of 4.5 μM, which is twenty-fold lower than the intrinsic MIC 90 μM against this organism, was used. Each of the test compounds was then evaluated at a range of concentrations varying from 3.125 to 50–100 μM, with the upper concentration dependent upon the compounds intrinsic MIC towards P. aeruginosa (Table 1). […] While the observation of cytotoxicity/hemolytic properties of 16a–c, 14f and 13f reduces our interest in these analogues, analogues 13b and 13d were identified as non-toxic and strong enhancers of the action of doxycycline towards P. aeruginosa.
# E. coli ATCC 25922 [5] = experiment: Antimicrobial MIC, E. coli; assay type: cell-based, Escherichia coli; conditions: Escherichia coli, ATCC25922, E. coli ATCC 25922; mean (n = 3)
# Procedure: as §2
# P. aeruginosa ATCC 27853 [6] = experiment: Antimicrobial MIC, P. aeruginosa; assay type: cell-based; conditions: Pseudomonas aeruginosa, ATCC27853, mean (n = 3)
# Procedure: as §2
# C. albicans ATCC 90028 = experiment: Antifungal MIC, C. albicans (CO-ADD); assay type: cell-based; conditions: Candida albicans, ATCC90028, mean (n = 2)
# Procedure: as §2
# [7] = tested on: C. neoformans ATCC 208821; experiment: Antifungal MIC, C. neoformans (CO-ADD); assay type: cell-based; conditions: Cryptococcus neoformans, ATCC208821, mean (n = 2)
# Procedure: as §2
# human red blood cells = experiment: Hemolytic assay; assay type: cell-based; conditions: mean (n = 2)
# Procedure: Hemolysis assays were conducted using the protocols previously reported.
MIC (A. baumannii AYE) [µM],MIC (K. pneumoniae ATCC 13883) [µM],MIC (P. aeruginosa PAO1) [µM],SMILES,MIC (S. aureus ATCC 25923) [µM],Ability to enhance the action of doxycycline towards P. aeruginosa (P. aeruginosa),Antimicrobial activity [1],Eryth/E. c: concentration required to restore erythromycin activity (E. coli ATCC 25922 [2]) [µM],Eryth/E. c: fold change (intrinsic MIC of test compound / combination MIC) (E. coli ATCC 25922 [2]) [fold],"Cytotoxicity (IC50), concentration of compound at 50% cytotoxicity [3]",IC50 (Cytotoxicity assay) [µM],MIC (MRSA ATCC 43300) [µM],Dox/P. a: concentration required to restore doxycycline activity (P. aeruginosa ATCC 27853 [4]) [µM],Dox/P. a: fold change (intrinsic MIC of test compound / combination MIC) (P. aeruginosa ATCC 27853 [4]) [fold],MIC (E. coli ATCC 25922 [5]) [µM],MIC (P. aeruginosa ATCC 27853 [6]) [µM],MIC (C. albicans ATCC 90028) [µM],MIC [7] [µM],"Hemolysis (HC10), concentration of compound at 10% hemolytic activity (human red blood cells) [µM]"
> 200,> 200,> 200,O=C(N[C@H](CO)[C@H](O)c1ccc([N+](=O)[O-])cc1)C(Cl)Cl [chloramphenicol],1.5 to 3,,,,,,,,,,,,,,
,,,O=C(CCc1ccccc1)NCCCNCCCCCCNCCCNC(=O)CCc1ccccc1 [Compound 17],,devoid,devoid of antimicrobial activity,,,,,,,,,,,,
> 200,> 200,> 200,CCn1cc(C(=O)O)c(=O)c2ccc(C)nc21 [nalidixic acid],,,,,,,,,,,,,,,
,,,"COc1ccc(/C=C/C(=O)NCCCNCCCCCCCCNCCCNC(=O)/C=C/c2ccc(OC)cc2)cc1.O=C(O)C(F)(F)F.O=C(O)C(F)(F)F [Compound 14d, N^1,N^8-Bis(3-((E)-3-(4-methoxyphenyl)acrylamido)propyl)octane-1,8-diaminium 2,2,2-trifluoroacetate]",7.75,,,62,1,does not exhibit cytotoxicity/hemolysis,> 39.7,≤ 0.31,15.5,16,62,248,> 39.7,,
,,,"O=C(C=Cc1ccccc1)NCCCNCCCCCCCCNCCCNC(=O)C=Cc1ccccc1.O=C(O)C(F)(F)F.O=C(O)C(F)(F)F [Compound 13d, N^1,N^8-Bis(3-cinnamamidopropyl)octane-1,8-diaminium 2,2,2-trifluoroacetate]",100,,,25,4,non-toxic,> 42.9,42.8,6.25,,100,> 200,> 42.8,42.8,>42.9
